# Reference: publication PMC12186255, “Discovery and Characterization of Small Molecule Inhibitors Targeting Exonuclease 1 for Homologous Recombination-Deficient Cancer Therapy” (ACS Chemical Biology, 2025)
# Assays:
# MDA-MB-231 cells = test: Gel-based phospho-RPA end resection assay; format: cell-based, human; settings: inhibitor overnight then 2 μM CPT 2 h, C5 10 μM
# Method: The levels of RPA32 and phosphorylated RPA32 (S33) were analyzed by Western blotting using antibodies against RPA32 and phosphorylated RPA32 (S33). The total level of tubulin was used as a control. (b) Ratio of P-RPA:RPA levels calculated from panel a. […] U2OS cells carrying a GFP reporter for HR were infected with adenovirus expressing the I-SceI restriction enzyme. […] U2OS cells carrying a GFP reporter for HR were infected with adenovirus expressing the I-SceI restriction enzyme. […] For panels c and d, after 48 h, the cells were harvested, and the GFP-positive cells were analyzed by flow cytometry. Values are the mean ± S.D. of three independent experiments.
# The treated cells were then lysed in the SDS-PAGE sample buffer, and the lysate was separated by SDS-PAGE prior to immobilization on a nitrocellulose membrane and Western blotting. Antibodies against unphosphorylated RPA, S33-P-RPA2, and tubulin were subsequently assayed according to the manufacturer’s recommendations. The ratio of P-RPA/RPA levels were quantified via ImageJ.
# EXO1 [1] = target: T1, EXO1 (Homo sapiens, UniProt Q9UQ84); test: FRET-based EXO1 exonuclease activity assay, dose-response; format: biochemical; settings: nick substrate, 30 min, 37 °C
# T1 construct: made in house
# T1 sequence (Q9UQ84 1-846): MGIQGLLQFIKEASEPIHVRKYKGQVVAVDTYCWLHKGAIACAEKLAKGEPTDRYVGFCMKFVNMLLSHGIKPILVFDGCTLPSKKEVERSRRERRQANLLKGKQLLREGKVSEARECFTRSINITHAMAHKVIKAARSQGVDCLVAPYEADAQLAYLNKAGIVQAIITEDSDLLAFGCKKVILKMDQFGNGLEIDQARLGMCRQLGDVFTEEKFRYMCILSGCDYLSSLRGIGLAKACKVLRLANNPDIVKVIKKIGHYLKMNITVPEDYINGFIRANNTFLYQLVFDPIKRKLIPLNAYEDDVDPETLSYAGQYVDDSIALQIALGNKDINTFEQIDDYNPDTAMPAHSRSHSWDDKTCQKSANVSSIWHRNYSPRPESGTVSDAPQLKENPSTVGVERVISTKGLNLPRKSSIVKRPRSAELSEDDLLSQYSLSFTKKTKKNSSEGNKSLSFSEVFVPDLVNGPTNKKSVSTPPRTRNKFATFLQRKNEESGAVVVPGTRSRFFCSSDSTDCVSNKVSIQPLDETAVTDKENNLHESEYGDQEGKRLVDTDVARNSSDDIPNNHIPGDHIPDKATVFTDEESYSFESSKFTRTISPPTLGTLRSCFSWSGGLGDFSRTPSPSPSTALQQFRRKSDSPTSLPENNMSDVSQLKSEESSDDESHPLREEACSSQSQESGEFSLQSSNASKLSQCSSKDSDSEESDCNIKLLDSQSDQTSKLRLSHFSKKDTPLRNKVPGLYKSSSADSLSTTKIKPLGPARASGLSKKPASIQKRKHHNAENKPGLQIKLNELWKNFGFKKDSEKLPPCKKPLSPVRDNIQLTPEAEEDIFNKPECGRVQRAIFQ
# From the text: We developed a cell-free in vitro assay to detect EXO1 exonuclease activity based on FRET quenching. […] A ZEN quencher and IowaBlackFQ quencher were attached to the downstream oligo internally and at the 3' end, respectively, to suppress FAM signal. Two quenchers were used to provide better quenching effects than did a single quencher, as recommended by the manufacturer (IDT). The sequence of the nick substrate was as follows: up-primer: [NT]; template: [NT]; and probe: […] . When EXO1 cleaved the nick substrate, the FAM-labeled nucleotide was untethered from the substrate and yielded a bright green fluorescence. […] Fluorescent signals were measured after a 30 min incubation. […] Data were normalized by subtracting the relative fluorescence unit (RFU) of the blank sample from that of each EXO1-containing reaction. The relative activity of individual compounds was subsequently calculated by setting the corrected RFU of EXO1 with DMSO as 100% and comparing the corrected RFU for each condition to the DMSO value. Each assay was performed by sequentially adding experimental compounds, the EXO1 enzyme, and the DNA substrate to minimize starting differences.
# FEN1 = target: T2, FEN1 (Homo sapiens, UniProt P39748); test: Analogous FRET-based counter screen with purified FEN1; format: biochemical; settings: FRET-based assay, maximum inhibitor concentration 100 μM
# T2 construct: made in house
# T2 sequence (P39748 whole entry): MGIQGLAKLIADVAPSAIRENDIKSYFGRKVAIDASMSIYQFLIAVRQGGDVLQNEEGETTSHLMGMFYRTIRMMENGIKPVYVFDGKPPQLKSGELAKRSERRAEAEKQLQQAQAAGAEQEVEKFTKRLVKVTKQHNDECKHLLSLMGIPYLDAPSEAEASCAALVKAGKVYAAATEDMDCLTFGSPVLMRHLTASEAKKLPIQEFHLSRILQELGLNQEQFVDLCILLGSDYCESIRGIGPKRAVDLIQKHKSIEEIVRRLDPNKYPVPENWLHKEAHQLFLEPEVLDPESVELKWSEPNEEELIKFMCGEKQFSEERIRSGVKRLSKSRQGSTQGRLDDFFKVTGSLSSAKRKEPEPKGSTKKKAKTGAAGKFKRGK
# Method: Data were normalized by subtracting the relative fluorescence unit (RFU) of the blank sample from that of each EXO1-containing reaction. The relative activity of individual compounds was subsequently calculated by setting the corrected RFU of EXO1 with DMSO as 100% and comparing the corrected RFU for each condition to the DMSO value. Each assay was performed by sequentially adding experimental compounds, the EXO1 enzyme, and the DNA substrate to minimize starting differences. […] Following IC50 screening, an analogous FRET-based assay was performed using purified FEN1 to assess the EXO1 specificity of each compound.
# For subsequent hit confirmation, 84 compounds from the primary screen were picked from our internal stock and subjected to a dose-dependent response assay starting at 100 μM with 3-fold serial dilution. To analyze the data from the dose-dependent response assay, IC50 values for each hit were calculated through nonlinear regression analysis using GraphPad Prism 10 (GraphPad Software, Inc.). […] Subsequently, a counter screen was performed to eliminate potential false-positive hits. To accomplish this, we established an analogous FRET assay using the purified FEN1 enzyme in place of EXO1.
# SF-295 = test: Cell line drug profiling, CellTiter Glo; format: cell-based, human
# Method: (§1) We tested the cytotoxicity of representative compounds from the seven EXO1i scaffolds against a subset of the NCI-60 cell line panel along with three additional pancreatic cell lines (FG, AsPC1, and CaPan2). In general, cells were seeded in 384-well tissue culture-treated plates overnight and treated with various concentrations of each hit compound (a serial 3-fold dilution from 50 μM for all tested hits). Each concentration was performed in duplicate. Cell viability was then measured by CellTiter Glo (Promega) after 72 h of treatment.
# MDA-MB-468 = test: Cell line drug profiling, CellTiter Glo; format: cell-based, human
# Method: as §1
# SK-MEL-28 = test: Cell line drug profiling, CellTiter Glo; format: cell-based; settings: Homo sapiens; SK-MEL-28, Melanoma, 72 h
# Method: as §1
# U251 = test: Cell line drug profiling, CellTiter Glo; format: cell-based; settings: Homo sapiens, U-251; U251, Central Nervous System, 72 h
# Method: as §1
# NCI/ADR-RES = test: Cell line drug profiling, CellTiter Glo; format: cell-based; settings: Homo sapiens, Ovarian, 72 h
# Method: as §1
# CaPan2 = test: Cell line drug profiling, CellTiter Glo; format: cell-based; settings: Homo sapiens, Capan-2; CaPan2, Pancreatic, 72 h
# Method: as §1
# IGR-OV1 = test: Cell line drug profiling, CellTiter Glo; format: cell-based; settings: Homo sapiens, IGROV-1; IGR-OV1, Ovarian, 72 h
# Method: as §1
# MCF7 = test: Cell line drug profiling, CellTiter Glo; format: cell-based; settings: Homo sapiens; MCF7, Breast, 72 h
# Method: as §1
# UO-31 = test: Cell line drug profiling, CellTiter Glo; format: cell-based; settings: Homo sapiens; UO-31, Kidney, 72 h
# Method: as §1
# OVCAR-8 = test: Cell line drug profiling, CellTiter Glo; format: cell-based; settings: Homo sapiens; OVCAR-8, Ovarian, 72 h
# Method: as §1
# T-47D = test: Cell line drug profiling, CellTiter Glo; format: cell-based; settings: Homo sapiens, T47D, Breast, 72 h
# Method: as §1
# OVCAR-5 = test: Cell line drug profiling, CellTiter Glo; format: cell-based; settings: Homo sapiens; OVCAR-5, Ovarian, 72 h
# Method: as §1
# SNB-19 = test: Cell line drug profiling, CellTiter Glo; format: cell-based; settings: Homo sapiens; SNB-19, Central Nervous System, 72 h
# Method: as §1
# OVCAR-4 = test: Cell line drug profiling, CellTiter Glo; format: cell-based; settings: Homo sapiens; OVCAR-4, Ovarian, 72 h
# Method: as §1
# DU145 (B3) = test: Cell line drug profiling, CellTiter Glo; format: cell-based; settings: Homo sapiens, DU-145, Prostate, 72 h
# Method: as §1
# FG = test: Cell line drug profiling, CellTiter Glo; format: cell-based; settings: Homo sapiens, Pancreatic, 72 h
# Method: as §1
# ACHN = test: Cell line drug profiling, CellTiter Glo; format: cell-based; settings: Homo sapiens, Kidney, 72 h
# Method: as §1
# AsPC1 = test: Cell line drug profiling, CellTiter Glo; format: cell-based; settings: Homo sapiens; AsPC1, Pancreatic, 72 h
# Method: as §1
# HS 578T = test: Cell line drug profiling, CellTiter Glo; format: cell-based; settings: Homo sapiens, Breast, 72 h
# Method: as §1
# MDA-MB-231 = test: Cell line drug profiling, CellTiter Glo; format: cell-based; settings: Homo sapiens; MDA-MB-231, Breast, 72 h
# Method: as §1
# CCRF-CEM = test: Cell line drug profiling, CellTiter Glo; format: cell-based; settings: Homo sapiens, Leukemia, 72 h
# Method: as §1
# UACC-257 = test: Cell line drug profiling, CellTiter Glo; format: cell-based; settings: Homo sapiens; UACC-257, Melanoma, 72 h
# Method: as §1
# PC3 = test: Cell line drug profiling, CellTiter Glo; format: cell-based; settings: Homo sapiens, PC-3; PC3, Prostate, 72 h
# Method: as §1
# H23 = test: Cell line drug profiling, CellTiter Glo; format: cell-based; settings: Homo sapiens, NCI-H23; H23, Lung, 72 h
# Method: as §1
# SF-268 = test: Cell line drug profiling, CellTiter Glo; format: cell-based; settings: Homo sapiens; SF-268, Central Nervous System, 72 h
# Method: as §1
# BT549 = test: Cell line drug profiling, CellTiter Glo; format: cell-based; settings: Homo sapiens, BT-549; BT549, Breast, 72 h
# Method: as §1
# DU145 = test: Cell line drug profiling, CellTiter Glo; format: cell-based; settings: Homo sapiens, DU-145; DU145, Prostate, 72 h
# Method: as §1
# MCF7 (B3) = test: Cell line drug profiling, CellTiter Glo; format: cell-based; settings: Homo sapiens, Breast, 72 h
# Method: as §1
# OVCAR-3 = test: Cell line drug profiling, CellTiter Glo; format: cell-based; settings: Homo sapiens; OVCAR-3, Ovarian, 72 h
# Method: as §1
# SKOV-3 = test: Cell line drug profiling, CellTiter Glo; format: cell-based; settings: Homo sapiens, SK-OV-3; SKOV-3, Ovarian, 72 h
# Method: as §1
# HL-60(TB) = test: Cell line drug profiling, CellTiter Glo; format: cell-based; settings: Homo sapiens, Leukemia, 72 h
# Method: as §1
# EXO1 [2] = target: T1, EXO1; test: Thermal shift assay; format: binding; settings: maximum shift in Tm of EXO1 vs DMSO, increasing inhibitor concentrations
# Method: To assess for changes in the thermal stability of EXO1 protein in response to treatment with candidate small molecule inhibitors or DMSO (vehicle control), the thermal shift assay (Applied Biosystems Protein Thermal Shift Dye Kit, Cat. #4461146) was utilized. The protein melt reaction mix consisted of freshly prepared 10× thermal shift dye, purified EXO1 enzyme (1 μg/uL), thermal shift buffer, DMSO or inhibitors, and sterilized Milli-Q water. A drug-free supermix was premade and dispensed in 96-well PCR plates followed by the addition of DMSO or inhibitors with increasing concentration. The reaction plate was heated from 10 to 98 °C at a rate of 0.5° per 10 s cycle, and the fluorescence intensity of individual wells was measured at 490/530 nm using a BioRad CFX96 Touch Real-Time PCR System. The fluorescence measurements of three technical replicates per treatment condition were then averaged to calculate melting temperature shift (ΔT m) as a readout for compound binding affinity.
compound,measurement,setting,value
"O=C(O)c1c[nH]c2c([N+](=O)[O-])cccc2c1=O [C5, reference compound]",CPT-induced P-RPA levels (DNA end resection),MDA-MB-231 cells,significant reduction
Cc1c(Cl)cccc1NCc1cc(=O)n2nc(-c3ccc(C(C)(C)C)cc3)nc2[nH]1 [D351],IC50,EXO1 [1],8 µM
same,IC50,FEN1,> 100 µM
O=S(=O)(Nc1nc2n(n1)C(c1ccc(F)cc1)C=C(c1ccccc1)N2)c1ccc(Cl)cc1 (stereo not shown) [D413-0213],IC50,"SF-295; SF-295, Central Nervous System, 72 h",40 µM
same,IC50,"MDA-MB-468; MDA-MB-468, Breast, 72 h",20 µM
O=S(=O)(Nc1nc2n(n1)C(c1ccccc1)C=C(c1ccc(Cl)cc1)N2)c1ccc(Cl)cc1 (stereo not shown) [D413],IC50,FEN1,> 100 µM
O=C(Nc1ccc(N2CCC(Cc3ccccc3)CC2)cc1C(=O)O)c1ccccc1Cl [F685],IC50,"SF-295; Homo sapiens, SF-295, 72 h",28.2 µM
same,IC50,"MDA-MB-468; Homo sapiens, MDA-MB-468, 72 h",46.4 µM
same,IC50,FEN1,> 100 µM
same,IC50,SK-MEL-28,47.1 µM
same,IC50,U251,14.2 µM
same,IC50,NCI/ADR-RES,17.7 µM
same,IC50,CaPan2,44.7 µM
same,IC50,IGR-OV1,18.1 µM
same,IC50,MCF7,43.5 µM
same,IC50,UO-31,8.27 µM
same,IC50,OVCAR-8,18.8 µM
same,IC50,T-47D,16.9 µM
same,IC50,OVCAR-5,19.4 µM
same,IC50,SNB-19,16.6 µM
same,IC50,OVCAR-4,21.4 µM
same,IC50,DU145 (B3),14.1 µM
same,IC50,FG,> 50 µM
same,IC50,ACHN,19.9 µM
same,IC50,AsPC1,43.3 µM
same,IC50,HS 578T,22.9 µM
same,IC50,MDA-MB-231,31.6 µM
same,IC50,CCRF-CEM,14.8 µM
same,IC50,UACC-257,21.5 µM
same,IC50,PC3,19.7 µM
same,IC50,H23,23.5 µM
same,IC50,SF-268,49.3 µM
same,IC50,BT549,17.9 µM
same,IC50,DU145,12.6 µM
same,IC50,MCF7 (B3),37.3 µM
same,IC50,OVCAR-3,5.73 µM
same,IC50,SKOV-3,24.4 µM
same,IC50,HL-60(TB),17.5 µM
Cc1ccccc1C(=O)Nc1ccc(N2CCN(c3ccccc3Cl)CC2)c(C(=O)O)c1 [G889],ΔT m,EXO1 [2],~1 °C
same,IC50,FEN1,> 100 µM
